In PubChem BioAssay (NCI):
Values joined by “and” are separate entries in the source; they are usually repeats but may differ in a detail not shown here. Equal values may be shown once.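 Where inhibition never reached the appropriate level, the endpoint shown equals the highest concentration tested. Otherwise, values were interpolated linearly from a five-concentration, 48-hour dose response in 96-well plates. GI50 is the concentration that inhibits growth by half. At the TGI there is no net growth.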

Legend:
Experiment in all cases: growth of human tumour cells (NCI), 48 h
786-0 renal = test system: 786-0 renal
A549 NSCLC = test system: A549 NSCLC
ACHN renal = test system: ACHN renal
CAKI-1 renal = test system: CAKI-1 renal
CCRF-CEM leukemia = test system: CCRF-CEM leukemia
COLO 205 colon = test system: COLO 205 colon
DLD-1 colon = test system: DLD-1 colon
DMS 114 small cell lung = test system: DMS 114 small cell lung
EKVX NSCLC = test system: EKVX NSCLC
HCC-2998 colon = test system: HCC-2998 colon
HCT-15 colon = test system: HCT-15 colon
HL-60(TB) leukemia = test system: HL-60(TB) leukemia
HOP-62 NSCLC = test system: HOP-62 NSCLC
HT29 colon = test system: HT29 colon
IGROV1 ovarian = test system: IGROV1 ovarian
K-562 leukemia = test system: K-562 leukemia
KM12 colon = test system: KM12 colon
KM20L2 colon = test system: KM20L2 colon
LOX IMVI melanoma = test system: LOX IMVI melanoma
LXFL 529 NSCLC = test system: LXFL 529 NSCLC
M14 melanoma = test system: M14 melanoma
M19-MEL melanoma = test system: M19-MEL melanoma
MALME-3M melanoma = test system: MALME-3M melanoma
MOLT-4 leukemia = test system: MOLT-4 leukemia
NCI-H226 lung = test system: NCI-H226 lung
NCI-H23 lung = test system: NCI-H23 lung
NCI-H460 lung = test system: NCI-H460 lung
NCI-H522 lung = test system: NCI-H522 lung
OVCAR-3 ovarian = test system: OVCAR-3 ovarian
OVCAR-4 ovarian = test system: OVCAR-4 ovarian
OVCAR-5 ovarian = test system: OVCAR-5 ovarian
OVCAR-8 ovarian = test system: OVCAR-8 ovarian
RPMI-8226 leukemia = test system: RPMI-8226 leukemia
RXF 393 renal = test system: RXF 393 renal
RXF-631 renal = test system: RXF-631 renal
SF-268 CNS = test system: SF-268 CNS
SF-295 CNS = test system: SF-295 CNS
SF-539 CNS = test system: SF-539 CNS
SK-MEL-2 melanoma = test system: SK-MEL-2 melanoma
SK-MEL-28 melanoma = test system: SK-MEL-28 melanoma
SK-MEL-5 melanoma = test system: SK-MEL-5 melanoma
SK-OV-3 ovarian = test system: SK-OV-3 ovarian
SN12C renal = test system: SN12C renal
SNB-19 CNS = test system: SNB-19 CNS
SNB-75 CNS = test system: SNB-75 CNS
SNB-78 CNS = test system: SNB-78 CNS
SR leukemia = test system: SR leukemia
SW-620 colon = test system: SW-620 colon
TK-10 renal = test system: TK-10 renal
U251 CNS = test system: U251 CNS
UACC-257 melanoma = test system: UACC-257 melanoma
UACC-62 melanoma = test system: UACC-62 melanoma
UO-31 renal = test system: UO-31 renal
XF 498 CNS = test system: XF 498 CNS
A498 renal = test system: A498 renal
DMS 273 small cell lung = test system: DMS 273 small cell lung
HCT-116 colon = test system: HCT-116 colon
HOP-18 NSCLC = test system: HOP-18 NSCLC
HOP-92 NSCLC = test system: HOP-92 NSCLC

## NC(C(=O)O)c1ccc(C(=O)O)cc1 (configuration not stated)
786-0 renal
  TGI: > 100 µM
A549 NSCLC
  TGI: > 100 µM
ACHN renal
  TGI: > 100 µM
CAKI-1 renal
  TGI: > 100 µM
CCRF-CEM leukemia
  TGI: > 100 µM
COLO 205 colon
  TGI: > 100 µM
DLD-1 colon
  TGI: > 100 µM
DMS 114 small cell lung
  TGI: > 100 µM
EKVX NSCLC
  TGI: > 100 µM
HCC-2998 colon
  TGI: > 100 µM
HCT-15 colon
  TGI: > 100 µM
HL-60(TB) leukemia
  TGI: > 100 µM
HOP-62 NSCLC
  TGI: > 100 µM
HT29 colon
  TGI: > 100 µM
IGROV1 ovarian
  TGI: > 100 µM
K-562 leukemia
  TGI: > 100 µM
KM12 colon
  TGI: > 100 µM
KM20L2 colon
  TGI: > 100 µM
LOX IMVI melanoma
  TGI: > 100 µM
LXFL 529 NSCLC
  TGI: > 100 µM
M14 melanoma
  TGI: > 100 µM
M19-MEL melanoma
  TGI: > 100 µM
MALME-3M melanoma
  TGI: > 100 µM
MOLT-4 leukemia
  TGI: > 100 µM
NCI-H226 lung
  TGI: > 100 µM
NCI-H23 lung
  TGI: > 100 µM
NCI-H460 lung
  TGI: > 100 µM
NCI-H522 lung
  TGI: > 100 µM
OVCAR-3 ovarian
  TGI: > 100 µM
OVCAR-4 ovarian
  TGI: > 100 µM
OVCAR-5 ovarian
  TGI: > 100 µM
OVCAR-8 ovarian
  TGI: > 100 µM
RPMI-8226 leukemia
  TGI: > 100 µM
RXF 393 renal
  TGI: > 100 µM
RXF-631 renal
  TGI: > 100 µM
SF-268 CNS
  TGI: > 100 µM
SF-295 CNS
  TGI: > 100 µM
SF-539 CNS
  TGI: > 100 µM
SK-MEL-2 melanoma
  TGI: > 100 µM
SK-MEL-28 melanoma
  TGI: > 100 µM
SK-MEL-5 melanoma
  TGI: > 100 µM
SK-OV-3 ovarian
  TGI: > 100 µM
SN12C renal
  TGI: > 100 µM
SNB-19 CNS
  TGI: > 100 µM
SNB-75 CNS
  TGI: > 100 µM
SNB-78 CNS
  TGI: > 100 µM
SR leukemia
  TGI: > 100 µM
SW-620 colon
  TGI: > 100 µM
TK-10 renal
  TGI: > 100 µM
U251 CNS
  TGI: > 100 µM
UACC-257 melanoma
  TGI: > 100 µM
UACC-62 melanoma
  TGI: > 100 µM
UO-31 renal
  TGI: > 100 µM
XF 498 CNS
  TGI: > 100 µM

## Nc1nc2c(ncn2CC(CO)CC(c2ccccc2)P(=O)(O)O)c(=O)[nH]1 (configuration not stated)
786-0 renal
  TGI: > 100 µM
A498 renal
  TGI: > 100 µM
A549 NSCLC
  TGI: > 100 µM
ACHN renal
  TGI: > 100 µM
CAKI-1 renal
  TGI: > 100 µM
CCRF-CEM leukemia
  TGI: > 100 µM
COLO 205 colon
  TGI: > 100 µM
DLD-1 colon
  TGI: > 100 µM
DMS 114 small cell lung
  TGI: > 100 µM
DMS 273 small cell lung
  TGI: > 100 µM
EKVX NSCLC
  TGI: > 100 µM
HCC-2998 colon
  TGI: > 100 µM
HCT-116 colon
  TGI: > 100 µM
HCT-15 colon
  TGI: > 100 µM
HL-60(TB) leukemia
  TGI: > 100 µM
HOP-18 NSCLC
  TGI: > 100 µM
HOP-62 NSCLC
  TGI: > 100 µM
HOP-92 NSCLC
  TGI: > 100 µM
HT29 colon
  TGI: > 100 µM
IGROV1 ovarian
  TGI: > 100 µM
K-562 leukemia
  TGI: > 100 µM
KM12 colon
  TGI: > 100 µM
KM20L2 colon
  TGI: > 100 µM
LOX IMVI melanoma
  TGI: > 100 µM
LXFL 529 NSCLC
  TGI: > 100 µM
M14 melanoma
  TGI: > 100 µM
M19-MEL melanoma
  TGI: > 100 µM
MALME-3M melanoma
  TGI: > 100 µM
MOLT-4 leukemia
  TGI: > 100 µM
NCI-H226 lung
  TGI: > 100 µM
NCI-H23 lung
  TGI: > 100 µM
NCI-H460 lung
  TGI: > 100 µM
NCI-H522 lung
  TGI: > 100 µM
OVCAR-3 ovarian
  TGI: > 100 µM
OVCAR-5 ovarian
  TGI: > 100 µM
OVCAR-8 ovarian
  TGI: > 100 µM
RPMI-8226 leukemia
  TGI: > 100 µM
RXF 393 renal
  TGI: > 100 µM
SF-268 CNS
  TGI: > 100 µM
SF-295 CNS
  TGI: > 100 µM
SF-539 CNS
  TGI: > 100 µM
SK-MEL-2 melanoma
  TGI: > 100 µM
SK-MEL-28 melanoma
  TGI: > 100 µM
SK-MEL-5 melanoma
  TGI: > 100 µM
SK-OV-3 ovarian
  TGI: > 100 µM
SN12C renal
  TGI: > 100 µM
SNB-19 CNS
  TGI: > 100 µM
SNB-75 CNS
  GI50: 13.2 µM and > 100 µM
  TGI: > 100 µM
SNB-78 CNS
  TGI: > 100 µM
SR leukemia
  TGI: > 100 µM
SW-620 colon
  TGI: > 100 µM
TK-10 renal
  TGI: > 100 µM
U251 CNS
  TGI: > 100 µM
UACC-257 melanoma
  TGI: > 100 µM
UACC-62 melanoma
  TGI: > 100 µM
UO-31 renal
  TGI: > 100 µM
XF 498 CNS
  TGI: > 100 µM
